Several values for one entry are separate records, joined by “and”; a condition that tells them apart may be missing. Equal entries are not always repeated. Inconclusive results and toxic doses are left out. Rule for the calls: active = survival T/C of 150% or more; inactive = T/C below 125% in these data.
System: CD2F1 mice, L1210 leukemia ip, survival T/C
Assay: NCI In Vivo Anticancer Drug Screen. Data for tumor model L1210 Leukemia (intraperitoneal) in CD2F1 (CDF1) mice
Conditions: higher = longer survival
In short: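 Ratio T/C, where T is the treated-group value and C the vehicle-dosed control value, from mice implanted with a transplantable tumor.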

[1] = endpoint: mean survival time, dose: 6.25 mg/kg/injection, schedule: Q01DX009 (ip), vehicle: Klucel (hydroxypropylcellulose) (HPC)
[2] = endpoint: mean survival time, dose: 12.5 mg/kg/injection, schedule: Q01DX009 (ip), vehicle: Klucel (hydroxypropylcellulose) (HPC)
[3] = endpoint: mean survival time, dose: 25.0 mg/kg/injection, schedule: Q01DX009 (ip), vehicle: Klucel (hydroxypropylcellulose) (HPC)
[4] = endpoint: mean survival time, dose: 50.0 mg/kg/injection, schedule: Q04DX003 (ip), vehicle: saline with Tween-80
[5] = endpoint: mean survival time, dose: 100.0 mg/kg/injection, schedule: Q04DX003 (ip), vehicle: saline with Tween-80
[6] = endpoint: mean survival time, dose: 200.0 mg/kg/injection, schedule: Q04DX003 (ip), vehicle: saline with Tween-80
[7] = endpoint: mean survival time, dose: 400.0 mg/kg/injection, schedule: Q04DX003 (ip), vehicle: saline with Tween-80
[8] = endpoint: mean survival time, dose: 100.0 mg/kg/injection, schedule: Q01DX009 (ip), vehicle: saline with Tween-80
[9] = endpoint: mean survival time, dose: 100.0 mg/kg/injection, schedule: Q04DX002 (ip), vehicle: saline with Tween-80
[10] = endpoint: mean survival time, dose: 200.0 mg/kg/injection, schedule: Q04DX002 (ip), vehicle: saline with Tween-80
[11] = endpoint: mean survival time, dose: 400.0 mg/kg/injection, schedule: Q04DX002 (ip), vehicle: saline with Tween-80
[12] = endpoint: mean survival time, dose: 50.0 mg/kg/injection, schedule: Q04DX003 (ip), vehicle: saline
[13] = endpoint: mean survival time, dose: 100.0 mg/kg/injection, schedule: Q04DX003 (ip), vehicle: saline
[14] = endpoint: mean survival time, dose: 200.0 mg/kg/injection, schedule: Q04DX003 (ip), vehicle: saline

Measured: T/C

CCCCCCCCCCCCCCCC(=O)N(C(C)CCCN(CC)CC)C(C)CCCN(CC)CC (centres undefined)
inactive: [1] 101 % of control | [2] 100 % of control | [3] 91 % of control

O=C(c1ccccc1)C1OC1c1ccc(Cl)cc1 (centres undefined)
inactive: [4] 96 % of control | [5] 102 % of control | [6] 106 % of control

CN(C)c1ccc2c(N(C)C)cc(N(C)C)nc2c1
inactive: endpoint: mean survival time, dose: 0.78 mg/kg/injection, schedule: Q01DX009 (ip), vehicle: Klucel (hydroxypropylcellulose) (HPC) 106 % of control | endpoint: mean survival time, dose: 1.56 mg/kg/injection, schedule: Q01DX009 (ip), vehicle: Klucel (hydroxypropylcellulose) (HPC) 102 % of control | endpoint: mean survival time, dose: 3.12 mg/kg/injection, schedule: Q01DX009 (ip), vehicle: Klucel (hydroxypropylcellulose) (HPC) 104 % of control | [1] 98 % of control | [2] 113 % of control and 96 % of control | [3] 88 % of control

CC(C)CCOC(=O)Nc1cccc(O)c1
inactive: [5] 98 % of control | [6] 100 % of control | [7] 101 % of control

CN(C)/N=N/c1[nH]cnc1C(N)=O.[Cl][Cu][Cl]
inactive: endpoint: mean survival time, dose: 1.56 mg/kg/injection, schedule: Q04DX003 (ip), vehicle: water 97 % of control | endpoint: mean survival time, dose: 2.0 mg/kg/injection, schedule: Q01DX001 (ip), vehicle: distilled water + Tween-80 96 % of control | endpoint: mean survival time, dose: 3.13 mg/kg/injection, schedule: Q04DX003 (ip), vehicle: water 106 % of control | endpoint: mean survival time, dose: 4.0 mg/kg/injection, schedule: Q01DX001 (ip), vehicle: distilled water + Tween-80 94 % of control | endpoint: mean survival time, dose: 6.25 mg/kg/injection, schedule: Q04DX003 (ip), vehicle: water 95 % of control | endpoint: mean survival time, dose: 8.0 mg/kg/injection, schedule: Q01DX001 (ip), vehicle: distilled water + Tween-80 99 % of control | endpoint: mean survival time, dose: 12.5 mg/kg/injection, schedule: Q04DX003 (ip), vehicle: water 94 % of control | endpoint: mean survival time, dose: 16.0 mg/kg/injection, schedule: Q01DX001 (ip), vehicle: distilled water + Tween-80 88 % of control | endpoint: mean survival time, dose: 32.0 mg/kg/injection, schedule: Q01DX001 (ip), vehicle: distilled water + Tween-80 92 % of control

N#CC(C#N)=NNc1cccc(Cl)c1Cl
inactive: endpoint: mean survival time, dose: 5.0 mg/kg/injection, schedule: Q04DX003 (ip), vehicle: saline with Tween-80 106 % of control | endpoint: mean survival time, dose: 10.0 mg/kg/injection, schedule: Q04DX003 (ip), vehicle: saline with Tween-80 104 % of control | endpoint: mean survival time, dose: 20.0 mg/kg/injection, schedule: Q04DX003 (ip), vehicle: saline with Tween-80 101 % of control

O=C1C(=O)c2ccccc2-c2ccccc21
inactive: endpoint: mean survival time, dose: 50.0 mg/kg/injection, schedule: Q01DX009 (ip), vehicle: saline with Tween-80 98 % of control | [8] 102 % of control

CCCCCOC(=O)COc1ccc(F)cc1F
inactive: [9] 101 % of control | [10] 105 % of control | [11] 90 % of control

COc1ccc(NC(=O)Oc2cccc(C)c2)cc1
inactive: [9] 90 % of control | [10] 97 % of control | [11] 93 % of control

CC1(CC(C)(C)c2ccccc2)OCCO1
inactive: [3] 100 % of control | endpoint: mean survival time, dose: 50.0 mg/kg/injection, schedule: Q01DX009 (ip), vehicle: Klucel (hydroxypropylcellulose) (HPC) 98 % of control | endpoint: mean survival time, dose: 100.0 mg/kg/injection, schedule: Q01DX009 (ip), vehicle: Klucel (hydroxypropylcellulose) (HPC) 100 % of control | endpoint: mean survival time, dose: 200.0 mg/kg/injection, schedule: Q01DX009 (ip), vehicle: Klucel (hydroxypropylcellulose) (HPC) 102 % of control | endpoint: mean survival time, dose: 400.0 mg/kg/injection, schedule: Q01DX009 (ip), vehicle: Klucel (hydroxypropylcellulose) (HPC) 100 % of control

S=C(S)NC1CCCCCCCCCCC1
inactive: [5] 102 % of control | [6] 100 % of control | [7] 93 % of control

Oc1ccc(O)c(/C=N/NC(=S)NC2CC3CC2C2C=CCC32)c1 (centres undefined)
inactive: endpoint: mean survival time, dose: 12.5 mg/kg/injection, schedule: Q01DX009 (ip), vehicle: olive oil, sesame oil, peanut oil 93 % of control | endpoint: mean survival time, dose: 25.0 mg/kg/injection, schedule: Q01DX009 (ip), vehicle: olive oil, sesame oil, peanut oil 96 % of control | endpoint: mean survival time, dose: 50.0 mg/kg/injection, schedule: Q01DX009 (ip), vehicle: olive oil, sesame oil, peanut oil 100 % of control | endpoint: mean survival time, dose: 100.0 mg/kg/injection, schedule: Q01DX009 (ip), vehicle: olive oil, sesame oil, peanut oil 102 % of control | endpoint: mean survival time, dose: 200.0 mg/kg/injection, schedule: Q01DX009 (ip), vehicle: olive oil, sesame oil, peanut oil 87 % of control | endpoint: mean survival time, dose: 400.0 mg/kg/injection, schedule: Q01DX009 (ip), vehicle: olive oil, sesame oil, peanut oil 94 % of control

Nc1nc2cc[nH]c2c(=O)[nH]1
inactive: endpoint: median survival time, dose: 50.0 mg/kg/injection, schedule: Q01DX005 (ip), vehicle: saline with Tween-80 94 % of control | endpoint: median survival time, dose: 100.0 mg/kg/injection, schedule: Q01DX005 (ip), vehicle: saline with Tween-80 97 % of control | endpoint: median survival time, dose: 200.0 mg/kg/injection, schedule: Q01DX005 (ip), vehicle: saline with Tween-80 92 % of control

N#CCS(=O)(=O)c1ccccc1
inactive: endpoint: mean survival time, dose: 12.5 mg/kg/injection, schedule: Q01DX001 (ip), vehicle: saline with Tween-80 95 % of control | endpoint: mean survival time, dose: 25.0 mg/kg/injection, schedule: Q01DX001 (ip), vehicle: saline with Tween-80 98 % of control | endpoint: mean survival time, dose: 50.0 mg/kg/injection, schedule: Q01DX001 (ip), vehicle: saline with Tween-80 96 % of control and 98 % of control

Cc1cc([N+](=O)[O-])cc(Br)c1N
inactive: endpoint: mean survival time, dose: 44.0 mg/kg/injection, schedule: Q04DX003 (ip), vehicle: saline with Tween-80 93 % of control | endpoint: mean survival time, dose: 66.0 mg/kg/injection, schedule: Q04DX003 (ip), vehicle: saline with Tween-80 95 % of control | [5] 93 % of control | endpoint: mean survival time, dose: 150.0 mg/kg/injection, schedule: Q04DX003 (ip), vehicle: saline with Tween-80 95 % of control

O=C(Cc1ccc([N+](=O)[O-])cc1)Nc1ccc(O)cc1
inactive: endpoint: mean survival time, dose: 100.0 mg/kg/injection, schedule: Q01DX001 (ip), vehicle: saline with Tween-80 98 % of control | endpoint: mean survival time, dose: 200.0 mg/kg/injection, schedule: Q01DX001 (ip), vehicle: saline with Tween-80 104 % of control | endpoint: mean survival time, dose: 400.0 mg/kg/injection, schedule: Q01DX001 (ip), vehicle: saline with Tween-80 101 % of control

COC(=O)CCC([NH-])C(=O)O.COC(=O)CCC([NH-])C(=O)O.[NH-]C1CCCCC1[NH-].[Pt+4] (centres undefined)
inactive: endpoint: median survival time, dose: 6.25 mg/kg/injection, schedule: Q04DX003 (ip), vehicle: saline 100 % of control | endpoint: median survival time, dose: 12.5 mg/kg/injection, schedule: Q04DX003 (ip), vehicle: saline 96 % of control | endpoint: median survival time, dose: 25.0 mg/kg/injection, schedule: Q04DX003 (ip), vehicle: saline 97 % of control | endpoint: median survival time, dose: 50.0 mg/kg/injection, schedule: Q04DX003 (ip), vehicle: saline 108 % of control | endpoint: median survival time, dose: 100.0 mg/kg/injection, schedule: Q04DX003 (ip), vehicle: saline 110 % of control

CN(C)Cc1cc(C(C)(C)C)c(O)c(C(C)(C)C)c1
inactive: endpoint: mean survival time, dose: 25.0 mg/kg/injection, schedule: Q04DX003 (ip), vehicle: saline with Tween-80 112 % of control | [4] 108 % of control | [5] 100 % of control

O=C(Nc1ccccc1)Nc1ccccc1F
inactive: [8] 95 % of control | endpoint: mean survival time, dose: 200.0 mg/kg/injection, schedule: Q01DX009 (ip), vehicle: saline with Tween-80 113 % of control | endpoint: mean survival time, dose: 400.0 mg/kg/injection, schedule: Q01DX009 (ip), vehicle: saline with Tween-80 98 % of control

C[N+](C)(C)CC[N+](C)(C)C
inactive: [12] 100 % of control | [13] 103 % of control | [14] 97 % of control

O=[N+]([O-])c1cc(P(=O)(O)O)c(Cl)cc1Cl
inactive: [12] 101 % of control | [13] 90 % of control | [14] 93 % of control

From PubChem BioAssay AID256 (DTP/NCI, 2004)
